According to patent US20110263454A1, “Methods of Identifying Functional Characteristics of Promoters, Transcription Modifying Proteins and Transcription Modulating Agents” (Salk Institute for Biological Studies, priority 2008, published 2011):

Tests used:
mABCA1 promoter = assay: NHR-promoter luciferase screen, mABCA1 promoter; format: cell-based, mouse; details: for Luc. act., normalized to lacZ / Normalized Luc. act., normalized to control: ABCA1 promoter, hormone receptor with or without its ligand; for Normalized Luc. act., normalized to control: relative to control; for mABCA1 promoter reporter activity: transcription factor +/- ligand, control = 1.00
Experimental: (§1) The use, feasibility, and reproducibility of the functional NHR-promoter screen in a 48-well format have been tested validated. Briefly, there were co-expressed 50 ng of each NHR/NHR homodimer or NHR/RXR heterodimer with 100 ng promoter/luciferase construct and 50 ng of LacZ (as a control for transfection efficiency) in CV-1 cells using Fugene HD (Roche) as a transfection reagent (alternatively or additionally, a CMV-YFP construct can be used as a transfection control). Each of the nuclear hormone receptors that were used in these experiments was cloned into a pcDNA3.1 vector and comprised a C-terminally linked V5H6 tag. Twenty-four hours after transfection, appropriate ligands were added, where applicable, (see Table 5 for various ligands and concentrations and after 48 hrs, samples were assayed for luciferase and LacZ activity. To measure for luciferase activity 15 ul of sample was added to 30 ul of luciferase buffer (20 mM tricine, 1.07 mM MgCarbonate, 2.67 mM MgSulfate, 0.1 mM Naz-EDTA, 5 mM DTT, 5 mM ATP, 0.15 mg/ml CoA, 0.5 mM Luciferin), mixed briefly, and run in a Perkin Elmer Victor 5 luminometer. Thus, the functional NHR-promoter screen was used to observe the transcriptional activity of 29 promoters from various physiological pathways including inflammation, lipid and sugar metabolism, cholesterol transport, xenobiotic metabolism, and circadian rhythm.
(§2) The promoters that facilitate transcription of the indicated gene products that were tested using the protocols described herein are listed in the first row of the table. The nuclear hormone receptors and, where applicable, ligands that were assayed for their transcriptional effects on the promoters are listed in the first column of the table. The data represent the luciferase activity of each sample normalized to both the lacZ activity of that sample and to a control, e.g., no NHR or ligand, as customary in the art. As described previously, these normalizations allow the transcriptional activity of each reporter cell to be compared to other samples.
(§3) Tables 7-40 show the transcriptional effects of the hormone receptors, and, where applicable, ligands (orphan receptors are screened without ligand), on each individual promoter. […] The control data of each table are shown in their last rows.

mCAR promoter = assay: NHR-promoter luciferase screen, mCAR promoter; format: cell-based, mouse; details: for luciferase activity normalized to lacZ activity and to a control, mCAR: mCAR promoter-luciferase, CV-1 cells, NHR +/- ligand, control = 1.00; for Luc. act., normalized to lacZ / Normalized Luc. act., normalized to control: mCAR promoter, HR/ligand component
Experimental: as §1, §2, §3

mDio2 promoter = assay: NHR-promoter luciferase screen, mDio2 promoter; format: cell-based, mouse; details: for Luc. act., normalized to lacZ / Normalized Luc. act., normalized to control: Dio2, HR component without or with its ligand; for mDio2 promoter reporter activity: transcription factor +/- ligand, control = 1.00
Experimental: as §1, §2, §3

mUCP2 promoter = assay: NHR-promoter luciferase screen, mUCP2 promoter; format: cell-based, mouse; details: for Luc. act., normalized to lacZ / Normalized Luc. act., normalized to control: mUCP2 promoter reporter, co-transfected HR, with or without its ligand; for Normalized Luc. act., normalized to control: relative to control; for luciferase activity normalized to lacZ activity and to a control, mUCP2: mUCP2 promoter-luciferase, CV-1 cells, NHR +/- ligand, control = 1.00
Experimental: as §1, §2, §3

hIFNg promoter = assay: NHR-promoter luciferase screen, hIFNg promoter; format: cell-based, human; details: for Luc. act., normalized to lacZ / Normalized Luc. act., normalized to control: IFNg promoter, HR component without or with ligand; for hIFNg promoter reporter activity: transcription factor +/- ligand, control = 1.00
Experimental: as §1, §2, §3

hPPARg2 promoter = assay: NHR-promoter luciferase screen, hPPARg2 promoter; format: cell-based, human; details: for Luc. act., normalized to lacZ / Normalized Luc. act., normalized to control: PPARG2 promoter, hormone receptor with or without its ligand; for Normalized Luc. act., normalized to control: relative to control; for Results of assays of transcription factor (+/- ligand) with hPPARg2: Table 6d, luciferase activity relative to control (control = 1.00)
Experimental: as §1, §2, §3

Row | Substance | Luc. act., normalized to lacZ (mABCA1 promoter) | Normalized Luc. act., normalized to control (mABCA1 promoter) | mABCA1 promoter reporter activity (mABCA1 promoter) | luciferase activity normalized to lacZ activity and to a control, mCAR (mCAR promoter) | Luc. act., normalized to lacZ (mCAR promoter) | Normalized Luc. act., normalized to control (mCAR promoter) | Luc. act., normalized to lacZ (mDio2 promoter) | Normalized Luc. act., normalized to control (mDio2 promoter) | mDio2 promoter reporter activity (mDio2 promoter) | Luc. act., normalized to lacZ (mUCP2 promoter) | Normalized Luc. act., normalized to control (mUCP2 promoter) | luciferase activity normalized to lacZ activity and to a control, mUCP2 (mUCP2 promoter) | Luc. act., normalized to lacZ (hIFNg promoter) | Normalized Luc. act., normalized to control (hIFNg promoter) | hIFNg promoter reporter activity (hIFNg promoter) | Luc. act., normalized to lacZ (hPPARg2 promoter) | Normalized Luc. act., normalized to control (hPPARg2 promoter) | Results of assays of transcription factor (+/- ligand) with hPPARg2 (hPPARg2 promoter)
1 | PPARg: Peroxisome proliferator activated receptor γ (NR1C3), cDNA driver | 14.4 | 2.6 | 2.56 | 1.25 | 47.7 | 1.3 | 35.5 | 2.3 | 2.26 | 171.6 | 1.6 | 1.56 | 24.04 | 1.5 | 1.51 | 2.2 | 1.1 | 1.08
2 | RXRa: Retinoic X Receptor α (NR2B1), cDNA driver | 8.7 | 1.6 | 1.56 | 0.97 | 36.9 | 1.0 | 18.6 | 1.2 | 1.18 | 137.8 | 1.3 | 1.25 | 13.1 | 0.8 | 0.82 | 1.3 | 0.7 | 0.67
3 | SF-1: Steroidogenic Factor 1 (NR5A1, SF1), cDNA driver | 34.4 | 6.1 | 6.12 | 2.43 | 92.6 | 2.4 | 63.2 | 4.0 | 4.02 | 449.3 | 4.1 | 4.09 | 46.3 | 2.9 | 2.91 | 2.2 | 1.1 | 1.09
